Assay results published in patent US20030171377A1, “Antidiabetic agents” (priority 2001, published 2003).

How the values were obtained:
[1] = tested on: endogenous nuclear receptors in CV-1 cells; assay: CV-1 Native Receptors Transcription Assay (MKNRCV1), Test C; type: cell-based, African green monkey; conditions: for MKNRCV1 % BRL @ 25 μM / MKNRCV1 % BRL @ 5 μM: percent activity of BRL 49653; for EC50: Chlorocebus sabaeus, CV-1 cells, 48 hours, unit inferred; for MKNRCV1 % BRL @ 5 μM: 5 μM (stated in the cell)
3T3-L1 preadipocytes = assay: 3T3-L1 Adipocyte Differentiation Assay (ADPDIFF), Test A; type: cell-based; conditions: BODIPY lipid fluorescence, reported as % of BRL 49653 at 5 μM
Procedure: Cells are replenished with FBS containing media on day 5 of post-drug treatment and incubated for additional 4-6 days. Cells are stained with BODIPY a fluorescent lipophilic stain to quantitate the lipid content of the cells. The assay is optimized for a 96-well plate format. Approximately after 10 days of post-drug treatment, cells are fixed in 3% formalin solution for 15 min followed by staining with BODIPY (80 μg/ml) for 20 min at room temperature. The plate is then put through the CYTOFLUOR instrument to measure the fluorescence of BODIPY (excitation=485/20; emission=530/25).

[2] = tested on: CV-1 cells (FATP promoter luciferase reporter, 300 nM BRL); assay: ANTCV1 Antagonist Transcription Assay, Test B; type: cell-based, African green monkey; conditions: Chlorocebus sabaeus, 25 μM test compound with 300 nM BRL, 48 hrs, % BRL inhibition, read-out: ANTCV1 INHIB @ 25 μM

## Cc1sc(-c2ccccc2)nc1CCOc1ccc(C[C@@H](C(=O)O)n2cccc2)cc1 [drawing 269]
[1]
  MKNRCV1 % BRL @ 25 μM: 76 % BRL
  EC50: 9200 nM
3T3-L1 preadipocytes
  ADPDIFF % BRL @ 5 μM: 92 % BRL
[2]
  inhibition at 25 µM: -20%

## Cc1oc(-c2ccccc2)nc1CCOc1ccc(CC(F)(C(=O)O)c2ccccc2)cc1 (stereo not drawn) [drawing 216]
[1]
  MKNRCV1 % BRL @ 25 μM: 63 % BRL
  EC50: 9500 nM
3T3-L1 preadipocytes
  ADPDIFF % BRL @ 5 μM: 122 % BRL
[2]
  inhibition at 25 µM: 37%

## Cc1oc(-c2ccccc2)nc1CCC(=O)c1ccc(CC(C(=O)O)n2cccc2)cc1 (stereo not drawn) [drawing 276]
3T3-L1 preadipocytes
  ADPDIFF % BRL @ 5 μM: 3 % BRL

## Cc1oc(-c2ccccc2)nc1CCOc1ccc(CC(C(=O)O)c2nc(-c3ccccc3)oc2C)cc1 (stereo not drawn) [drawing 261]
[1]
  MKNRCV1 % BRL @ 5 μM: 110 @ 5 μM % BRL
[2]
  inhibition at 25 µM: 18%

## O=C(O)[C@H](Cc1ccc(OCCN2CCN(c3ccccc3)CC2)cc1)n1cccc1
[1]
  MKNRCV1 % BRL @ 25 μM: 32 % BRL
3T3-L1 preadipocytes
  ADPDIFF % BRL @ 5 μM: 82 % BRL
[2]
  inhibition at 25 µM: -40%

## CN(CC#Cc1ccc(CC(C(=O)O)n2cccc2)cc1)c1ccccn1 (stereo not drawn)
[1]
  MKNRCV1 % BRL @ 25 μM: 71 % BRL
3T3-L1 preadipocytes
  ADPDIFF % BRL @ 5 μM: 6 % BRL
[2]
  inhibition at 25 µM: -32%

## Cc1oc(-c2ccccc2)nc1CCOc1ccc(C[C@@H](C(=O)O)n2c(C)cc(Cl)c2C)cc1
[1]
  MKNRCV1 % BRL @ 25 μM: 55 % BRL
3T3-L1 preadipocytes
  ADPDIFF % BRL @ 5 μM: 28 % BRL
[2]
  inhibition at 25 µM: 5%

## Cc1oc(-c2ccccc2)nc1CCOc1ccc(C[C@@H](C(=O)NS(=O)(=O)c2ccccc2)n2cccc2)cc1
[1]
  MKNRCV1 % BRL @ 25 μM: 101 % BRL
  EC50: 3300 nM
3T3-L1 preadipocytes
  ADPDIFF % BRL @ 5 μM: 90 % BRL
[2]
  inhibition at 25 µM: -117%

## Cc1oc(-c2ccccc2)nc1CCOc1ccc(CC(C(=O)O)c2ccccc2)cn1 (stereo not drawn) [drawing 262]
[1]
  EC50: 1200 nM

## Cc1ccc(-c2ccccc2)n1[C@@H](Cc1ccc(OCc2ccccc2F)cc1)C(=O)O
[1]
  MKNRCV1 % BRL @ 25 μM: 30 % BRL
3T3-L1 preadipocytes
  ADPDIFF % BRL @ 5 μM: 2 % BRL
[2]
  inhibition at 25 µM: -44%

## Cc1oc(-c2ccccc2)nc1CCOc1ccc(C[C@H](C(=O)O)c2ccccc2)cc1
[1]
  MKNRCV1 % BRL @ 25 μM: 50 % BRL
3T3-L1 preadipocytes
  ADPDIFF % BRL @ 5 μM: 31 % BRL
[2]
  inhibition at 25 µM: -44%

## Cc1oc(-c2ccccc2)nc1CCOc1ccc(C[C@@H](c2nnco2)n2cccc2)cc1
[1]
  MKNRCV1 % BRL @ 5 μM: 37 @ 5 μM % BRL
3T3-L1 preadipocytes
  ADPDIFF % BRL @ 5 μM: 45 % BRL
[2]
  inhibition at 25 µM: 49%

## Cc1oc(-c2ccccc2)nc1CCOc1ccc(C[C@@H](C(=O)O)n2cccc2)cc1
[1]
  MKNRCV1 % BRL @ 5 μM: 83 @ 5 μM % BRL

## CCCc1nnc([C@H](Cc2ccc(OCCc3nc(-c4ccccc4)oc3C)cc2)n2cccc2)o1
[1]
  MKNRCV1 % BRL @ 25 μM: 0 % BRL
3T3-L1 preadipocytes
  ADPDIFF % BRL @ 5 μM: 94 % BRL
[2]
  inhibition at 25 µM: 84%

## O=C(O)[C@H](Cc1ccc(C#CCN2CCC(c3ccccc3)CC2)cc1)n1cccc1 [drawing 288]
[1]
  MKNRCV1 % BRL @ 25 μM: 78 % BRL
  EC50: 1300 nM
3T3-L1 preadipocytes
  ADPDIFF % BRL @ 5 μM: 112 % BRL
[2]
  inhibition at 25 µM: -42%

## Cc1oc(-c2ccccc2)nc1CCOc1ccc(CC(C(=O)O)N2CCCC2=O)cc1 (stereo not drawn)
[1]
  MKNRCV1 % BRL @ 25 μM: 29 % BRL
3T3-L1 preadipocytes
  ADPDIFF % BRL @ 5 μM: 0 % BRL
[2]
  inhibition at 25 µM: -94%

## Cc1oc(-c2ccccc2)nc1CCOc1ccc(CC[C@@H](C(=O)O)n2cccc2)cc1
[1]
  MKNRCV1 % BRL @ 5 μM: 82 @ 5 μM % BRL
  EC50: 1300 nM
[2]
  inhibition at 25 µM: 62%

## Cc1oc(-c2ccccc2)nc1CCOc1ccc([C@@H](C(=O)O)n2cccc2C(=O)c2ccccc2)cc1
[1]
  MKNRCV1 % BRL @ 5 μM: 39 % BRL
  MKNRCV1 % BRL @ 25 μM: 58 % BRL
[2]
  inhibition at 25 µM: -5%

## Cc1cc(OCCc2nc(-c3ccccc3)oc2C)ccc1CC(C(=O)O)c1ccccc1 (stereo not drawn)
[1]
  EC50: 1000 nM

## Cc1nc(-c2ccc(C(F)(F)F)cc2)sc1CSc1ccc(OCC(=O)O)cc1
[1]
  MKNRCV1 % BRL @ 25 μM: 70 % BRL
[2]
  inhibition at 25 µM: -58%

## Cc1oc(-c2ccccc2)nc1C/C=C/c1ccc(C[C@@H](C(=O)O)n2cccc2)cc1
[1]
  MKNRCV1 % BRL @ 25 μM: 94 % BRL
3T3-L1 preadipocytes
  ADPDIFF % BRL @ 5 μM: 76 % BRL

## Cc1oc(-c2ccccc2)nc1CCOc1ccc(CC(C(=O)O)c2ccccc2)cn1 (stereo not drawn) [drawing 309]
[1]
  MKNRCV1 % BRL @ 5 μM: 75 @ 5 μM % BRL
[2]
  inhibition at 25 µM: -58%

## Cc1oc(-c2ccccc2)nc1CC#Cc1ccc(CC(C(=O)O)c2ccc(-c3ccccc3)cc2)cc1 (stereo not drawn)
[1]
  MKNRCV1 % BRL @ 5 μM: 86 @ 5 μM % BRL
  EC50: 2700 nM
[2]
  inhibition at 25 µM: -21%

## Cc1oc(-c2ccccc2)nc1CCOc1ccc([C@@H](C(=O)O)n2cccc2)cc1
[1]
  MKNRCV1 % BRL @ 5 μM: 47 % BRL
  MKNRCV1 % BRL @ 25 μM: 57 % BRL
  EC50: 3600 nM
[2]
  inhibition at 25 µM: 39%

## Cc1oc(-c2ccccc2)nc1CCNc1ccc(C[C@@H](C(=O)O)n2cccc2)cc1
[1]
  MKNRCV1 % BRL @ 25 μM: 157 % BRL

## CN(C/C=C/c1ccc(C[C@@H](C(=O)O)n2cccc2)cc1)c1ccccc1
[1]
  MKNRCV1 % BRL @ 25 μM: 79 % BRL
  EC50: 1700 nM
[2]
  inhibition at 25 µM: -29%
